According to patent publication US5500410A, “Substituted alkylamide derivatives of teicoplanin” (Gruppo Lepetit S.p.A., priority 1989, dated 1996):

Tests used:
Strep. pyogenes C 203 = assay: In vivo test in mice septicemically infected with Strep. pyogenes C 203; settings: Strep. pyogenes C 203 septicemia
From the text: The ED50 values (mg/kg) of representative compounds of the invention in in vivo tests in mice septicemically infected with Strep. pyogenes. C 203, obtained according to the procedure described by V. Arioli et al. (Journal of Antibiotics 29, 511; 1976) are given in table III.

[1] = tested on: Escherichia coli SKF 12140; assay: In vitro MIC, two-fold dilution in microtiter; format: cell-based; settings: 18-24 h at 37° C., inoculum about 10^4 CFU/ml
Procedure: (§1) Broth cultures are diluted enough so that the final inecuium is about 10^4 colony forming units/ml (CFU/ml).

[2] = tested on: Staphylococcus haemolyticus L 602; assay: In vitro MIC, two-fold dilution in microtiter; format: cell-based; settings: 18-24 h at 37° C., inoculum about 10^4 CFU/ml
Procedure: as §1

[3] = tested on: Staphylococcus aureus TOUR; assay: In vitro MIC, two-fold dilution in microtiter; format: cell-based; settings: 18-24 h at 37° C., inoculum about 10^4 CFU/ml
Procedure: as §1

[4] = tested on: Streptococcus pyogenes C 203; assay: In vitro MIC, two-fold dilution in microtiter; format: cell-based; settings: 18-24 h at 37° C., inoculum about 10^4 CFU/ml
Procedure: as §1

[5] = tested on: Streptococcus pneumoniae UC 41; assay: In vitro MIC, two-fold dilution in microtiter; format: cell-based; settings: 18-24 h at 37° C., inoculum about 10^4 CFU/ml
Procedure: as §1

[6] = tested on: Streptococcus faecalis ATCC 7080; assay: In vitro MIC, two-fold dilution in microtiter; format: cell-based; settings: 18-24 h at 37° C., inoculum about 10^4 CFU/ml
Procedure: as §1

[7] = tested on: Pseudomonas aeruginosa ATCC 10145; assay: In vitro MIC, two-fold dilution in microtiter; format: cell-based; settings: 18-24 h at 37° C., inoculum about 10^4 CFU/ml
Procedure: as §1

[8] = tested on: Proteus vulgaris X19H ATCC 881; assay: In vitro MIC, two-fold dilution in microtiter; format: cell-based; settings: 18-24 h at 37° C., inoculum about 10^4 CFU/ml
Procedure: as §1

[9] = tested on: Staphylococcus epidermidis ATCC 12228; assay: In vitro MIC, two-fold dilution in microtiter; format: cell-based; settings: 18-24 h at 37° C., inoculum about 10^4 CFU/ml
Procedure: as §1

[10] = tested on: Pseudomonas aeruginosa Strain No. L 1348; assay: MIC against multi-resistant clinical isolates of Pseudomonas aeruginosa; format: cell-based; settings: multi-resistant clinical isolate
Procedure: as §1
(§2) The activity against some multi-resistant clinical isolates of Pseudomonas aeruginosa of compounds 22, 23, 25, 26, 27 and 29 is shown in Table II.

[11] = tested on: Pseudomonas aeruginosa Strain No. L 1533; assay: as above; format: cell-based; settings: multi-resistant clinical isolate
Procedure: as §1, §2

[12] = tested on: Pseudomonas aeruginosa Strain No. L 1498; assay: as above; format: cell-based; settings: multi-resistant clinical isolate
Procedure: as §1, §2

[13] = tested on: Pseudomonas aeruginosa Strain No. L 1138; assay: as above; format: cell-based; settings: multi-resistant clinical isolate
Procedure: as §1, §2

E. coli = assay: Mice septicemically infected with E. coli; format: in vivo; settings: E. coli septicemia

MIC Escherichia coli SKF 12140 [1] [microgram/ml]	MIC Staphylococcus aureus TOUR [3] [microgram/ml]	MIC Streptococcus pyogenes C 203 [4] [microgram/ml]	MIC Streptococcus pneumoniae UC 41 [5] [microgram/ml]	MIC Streptococcus faecalis ATCC 7080 [6] [microgram/ml]	MIC Pseudomonas aeruginosa ATCC 10145 [7] [microgram/ml]	MIC Proteus vulgaris X19H ATCC 881 [8] [microgram/ml]	MIC Staphylococcus epidermidis ATCC 12228 [9] [microgram/ml]	MIC Pseudomonas aeruginosa L 1348 [10] [microgram/ml]	MIC Pseudomonas aeruginosa L 1533 [11] [microgram/ml]	MIC Pseudomonas aeruginosa L 1498 [12] [microgram/ml]	MIC Pseudomonas aeruginosa L 1138 [13] [microgram/ml]	Structure (SMILES)	ED50 p.o. (Strep. pyogenes C 203; p.o.) [mg/kg]	ED50 s.c. (Strep. pyogenes C 203; s.c.) [mg/kg]	MIC Staphylococcus haemolyticus L 602 [2] [microgram/ml]	survivors/treated (E. coli; i.v. administration, 40 mg/kg)	ED50 s.c. (E. coli; s.c. administration) [mg/kg]
64	0.12	0.06	0.12	0.12	32	128	0.06					CC(=O)NC1C(OC2c3ccc(c(Cl)c3)Oc3cc4cc(c3OC3OC(CO)C(O)C(O)C3NC(=O)CCCCCCC(C)C)Oc3ccc(cc3Cl)CC3NC(=O)C(N)c5ccc(O)c(c5)Oc5cc(O)cc(c5)C(NC3=O)C(=O)NC4C(=O)NC3C(=O)NC2C(=O)NC(C(=O)NCCCNCCCCNCCCN)c2cc(O)cc(OC4OC(CO)C(O)C(O)C4O)c2-c2cc3ccc2O)OC(CO)C(O)C1O (stereo not drawn) [Compound 11]	81.2	0.03	0.12		
1	0.06	0.12	0.12	0.12	8	32	0.03	4	64	64	64	NCCCNCCCNC(=O)C1NC(=O)C2NC(=O)C(NC(=O)C3NC(=O)C4NC(=O)C(Cc5ccc(c(Cl)c5)Oc5cc3cc(c5O)Oc3ccc(cc3Cl)C2O)NC(=O)C(N)c2ccc(O)c(c2)Oc2cc(O)cc4c2)c2ccc(O)c(c2)-c2c(O)cc(O)cc21 (stereo not drawn) [Compound 22]			0.12		
0.5	0.06	0.06	0.12	0.25	2	64	0.016	4	64	64	32	NCCCNCCCNCCCNC(=O)C1NC(=O)C2NC(=O)C(NC(=O)C3NC(=O)C4NC(=O)C(Cc5ccc(c(Cl)c5)Oc5cc3cc(c5O)Oc3ccc(cc3Cl)C2O)NC(=O)C(N)c2ccc(O)c(c2)Oc2cc(O)cc4c2)c2ccc(O)c(c2)-c2c(O)cc(O)cc21 (stereo not drawn) [Compound 26]			0.06		
2	0.06	0.06	0.12	0.12	8	64	0.06	4	64	64	64	NCCCNCCCCNCCCNC(=O)C1NC(=O)C2NC(=O)C(NC(=O)C3NC(=O)C4NC(=O)C(Cc5ccc(c(Cl)c5)Oc5cc3cc(c5O)Oc3ccc(cc3Cl)C2O)NC(=O)C(N)c2ccc(O)c(c2)Oc2cc(O)cc4c2)c2ccc(O)c(c2)-c2c(O)cc(O)cc21 (stereo not drawn) [Compound 27]			0.12		
1	0.06	0.06	0.12	0.12	8	32	0.016	8	128	64	64	NCCN(CCN)CCNC(=O)C1NC(=O)C2NC(=O)C(NC(=O)C3NC(=O)C4NC(=O)C(Cc5ccc(c(Cl)c5)Oc5cc3cc(c5O)Oc3ccc(cc3Cl)C2O)NC(=O)C(N)c2ccc(O)c(c2)Oc2cc(O)cc4c2)c2ccc(O)c(c2)-c2c(O)cc(O)cc21 (stereo not drawn) [Compound 29]			0.06		

Structure (SMILES)	MIC Escherichia coli SKF 12140 [1] [microgram/ml]	MIC Staphylococcus aureus TOUR [3] [microgram/ml]	MIC Streptococcus pyogenes C 203 [4] [microgram/ml]	MIC Streptococcus pneumoniae UC 41 [5] [microgram/ml]	MIC Streptococcus faecalis ATCC 7080 [6] [microgram/ml]	MIC Pseudomonas aeruginosa ATCC 10145 [7] [microgram/ml]	MIC Proteus vulgaris X19H ATCC 881 [8] [microgram/ml]	MIC Staphylococcus epidermidis ATCC 12228 [9] [microgram/ml]	MIC Pseudomonas aeruginosa L 1348 [10] [microgram/ml]	MIC Pseudomonas aeruginosa L 1533 [11] [microgram/ml]	MIC Pseudomonas aeruginosa L 1498 [12] [microgram/ml]	MIC Pseudomonas aeruginosa L 1138 [13] [microgram/ml]	ED50 p.o. (Strep. pyogenes C 203; p.o.) [mg/kg]	ED50 s.c. (Strep. pyogenes C 203; s.c.) [mg/kg]	MIC Staphylococcus haemolyticus L 602 [2] [microgram/ml]	survivors/treated (E. coli; i.v. administration, 40 mg/kg)	ED50 s.c. (E. coli; s.c. administration) [mg/kg]
NCCCNCCNCCCNC(=O)C1NC(=O)C2NC(=O)C(NC(=O)C3NC(=O)C4NC(=O)C(Cc5ccc(c(Cl)c5)Oc5cc3cc(c5O)Oc3ccc(cc3Cl)C2O)NC(=O)C(N)c2ccc(O)c(c2)Oc2cc(O)cc4c2)c2ccc(O)c(c2)-c2c(O)cc(O)cc21 (stereo not drawn) [Compound 25]	2	0.12	0.06	0.12	0.12	16	64	0.06	4	64	64	32			0.12		
NCCCN(CCCN)CCCNC(=O)C1NC(=O)C2NC(=O)C(NC(=O)C3NC(=O)C4NC(=O)C(Cc5ccc(c(Cl)c5)Oc5cc3cc(c5O)Oc3ccc(cc3Cl)C2O)NC(=O)C(N)c2ccc(O)c(c2)Oc2cc(O)cc4c2)c2ccc(O)c(c2)-c2c(O)cc(O)cc21 (stereo not drawn) [Compound 50]	1	0.12	0.06	0.12	0.12	8	128	0.008							0.06	7/8	≤ 38
